The test system of this test is BDF1 mice, s.c. Lewis lung carcinoma, T/C %. Nature of the test: NCI In Vivo Anticancer Drug Screen. Data for tumor model Lewis Lung Carcinoma (subcutaneous) in B6D2F1 (BDF1) mice. The method in brief: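 Tumor-bearing mice were treated with test compound, and either survival or tumor size was recorded. Values are the treated-group measurement divided by that of the vehicle-treated control group.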

The mark [1] stands for this setting: endpoint: median survival time, dose: 0.06 mg/kg/injection, schedule: Q01DX009 (ip), vehicle: saline, higher = longer survival.
[2] abbreviates: endpoint: median survival time, dose: 0.25 mg/kg/injection, schedule: Q01DX009 (ip), vehicle: saline, higher = longer survival.
Setting [3] is: endpoint: median survival time, dose: 12.5 mg/kg/injection, schedule: Q01DX009 (ip), vehicle: saline with Tween-80, higher = longer survival.
The mark [4] stands for this setting: endpoint: median survival time, dose: 25.0 mg/kg/injection, schedule: Q01DX009 (ip), vehicle: saline with Tween-80, higher = longer survival.
Where [5] appears, read: endpoint: mean tumor weight, dose: 0.12 mg/kg/injection, schedule: Q01DX011 (ip), vehicle: saline, higher = larger tumour.

“And” between values parts separate entries of the source, which are not always exact repeats. Equal entries are not always repeated. Results filed as inconclusive are left out.

For the molecule `NC(=O)N(CCCl)N=O`, the T/C by setting is: (endpoint: mean tumor weight, dose: 0.63 mg/kg/injection, schedule: Q01DX011 (ip), vehicle: saline, higher = larger tumour) 80 % of control; (endpoint: mean tumor weight, dose: 1.25 mg/kg/injection, schedule: Q01DX011 (ip), vehicle: saline, higher = larger tumour) 53 % of control; (endpoint: mean tumor weight, dose: 2.5 mg/kg/injection, schedule: Q01DX011 (ip), vehicle: saline, higher = larger tumour) 10 % of control; (endpoint: median survival time, dose: 1.0 mg/kg/injection, schedule: Q01DX001 (ip), vehicle: saline + alcohol, higher = longer survival) 120 % of control.
As to `Cc1ccc2oc(-c3ccccc3)c(O)c(=O)c2c1`, the T/C is, setting by setting: (endpoint: mean tumor weight, dose: 18.8 mg/kg/injection, schedule: Q01DX010 (ip), vehicle: saline, higher = larger tumour) 77 % of control; (endpoint: mean tumor weight, dose: 37.5 mg/kg/injection, schedule: Q01DX010 (ip), vehicle: saline, higher = larger tumour) 73 % of control; (endpoint: mean tumor weight, dose: 75.0 mg/kg/injection, schedule: Q01DX010 (ip), vehicle: saline, higher = larger tumour) 57 % of control; (endpoint: mean tumor weight, dose: 150.0 mg/kg/injection, schedule: Q01DX010 (ip), vehicle: saline, higher = larger tumour) 86 % of control.
For `COC(C(=O)C(O)C(C)O)C1Cc2cc3cc(OC4CC(OC5CC(O)C(O)C(C)O5)C(O)C(C)O4)c(C)c(O)c3c(O)c2C(=O)C1OC1CC(OC2CC(O)C(OC3CC(C)(O)C(O)C(C)O3)C(C)O2)C(O)C(C)O1` (stereo not drawn), the T/C under setting [1] was 93 % of control; the T/C (endpoint: median survival time, dose: 0.13 mg/kg/injection, schedule: Q01DX009 (ip), vehicle: saline, higher = longer survival) was 93 % of control and 123 % of control; the T/C under setting [2] is 96 % of control; the T/C (endpoint: median survival time, dose: 0.5 mg/kg/injection, schedule: Q01DX009 (ip), vehicle: saline, higher = longer survival) is 94 % of control.
For `C=C(C)C(=O)OCCN(C)C` (tested in a mixture with another compound), the T/C was 102 % of control (endpoint: median survival time, dose: 50.0 mg/kg/injection, schedule: Q01DX009 (ip), vehicle: other, higher = longer survival); 103 % of control (endpoint: median survival time, dose: 100.0 mg/kg/injection, schedule: Q01DX009 (ip), vehicle: other, higher = longer survival); 108 % of control (endpoint: median survival time, dose: 200.0 mg/kg/injection, schedule: Q01DX009 (ip), vehicle: other, higher = longer survival); 102 % of control (endpoint: median survival time, dose: 400.0 mg/kg/injection, schedule: Q01DX009 (ip), vehicle: other, higher = longer survival).
On to `CCCCCCCCCCCCSC(=N)N`, for which the T/C reads like this: (endpoint: median survival time, dose: 6.25 mg/kg/injection, schedule: Q01DX009 (ip), vehicle: saline with Tween-80, higher = longer survival) 107 % of control; under setting [3], 106 % of control; under setting [4], 104 % of control.
For `CC[C@]1(O)C[C@H]2CN(CCc3c([nH]c4ccccc34)[C@@](C(=O)OC)(c3cc4c(cc3OC)N(C)[C@H]3[C@@](O)(C(=O)OC)[C@H](OC(C)=O)[C@]5(CC)C=CCN6CC[C@]43[C@@H]65)C2)C1`, the T/C is, setting by setting: under setting [5], 109 % of control; (endpoint: mean tumor weight, dose: 0.24 mg/kg/injection, schedule: Q01DX011 (ip), vehicle: saline, higher = larger tumour) 94 % of control; (endpoint: mean tumor weight, dose: 0.36 mg/kg/injection, schedule: Q01DX011 (ip), vehicle: saline, higher = larger tumour) 84 % of control; (endpoint: mean tumor weight, dose: 0.54 mg/kg/injection, schedule: Q01DX011 (ip), vehicle: saline, higher = larger tumour) 99 % of control; (endpoint: mean tumor weight, dose: 0.8 mg/kg/injection, schedule: Q01DX011 (ip), vehicle: saline, higher = larger tumour) 60 % of control; (endpoint: mean tumor weight, dose: 0.81 mg/kg/injection, schedule: Q01DX011 (ip), vehicle: saline, higher = larger tumour) 111 % of control. For the same molecule, the T/C was 61 % of control (endpoint: mean tumor weight, dose: 125.0 micrograms/kg/injection, schedule: Q01DX011 (ip), vehicle: saline, higher = larger tumour); 53 % of control (endpoint: mean tumor weight, dose: 250.0 micrograms/kg/injection, schedule: Q01DX011 (ip), vehicle: saline, higher = larger tumour); 101 % of control and 118 % of control under setting [1]; 88 % of control (endpoint: median survival time, dose: 0.12 mg/kg/injection, schedule: Q01DX009 (ip), vehicle: saline, higher = longer survival); 96 % of control under setting [2].
Regarding `CC(=O)NC(Cc1ccc(N(CCCl)CCCl)cc1)C(=O)O` (stereo not drawn), the T/C (endpoint: median survival time, dose: 3.13 mg/kg/injection, schedule: Q01DX009 (ip), vehicle: other, higher = longer survival) was 104 % of control; the T/C (endpoint: median survival time, dose: 6.25 mg/kg/injection, schedule: Q01DX009 (ip), vehicle: other, higher = longer survival) was 120 % of control; the T/C (endpoint: median survival time, dose: 25.0 mg/kg/injection, schedule: Q01DX009 (ip), vehicle: other, higher = longer survival) is 114 % of control.
In the case of `CC(C)=CC1C(C(=O)OCc2ccc(C)cc2C)C1(C)C` (stereo not drawn), the T/C under setting [3] was 93 % of control; the T/C under setting [4] was 104 % of control; the T/C (endpoint: median survival time, dose: 50.0 mg/kg/injection, schedule: Q01DX009 (ip), vehicle: saline with Tween-80, higher = longer survival) was 89 % of control; the T/C (endpoint: median survival time, dose: 100.0 mg/kg/injection, schedule: Q01DX009 (ip), vehicle: saline with Tween-80, higher = longer survival) was 95 % of control; the T/C (endpoint: median survival time, dose: 200.0 mg/kg/injection, schedule: Q01DX009 (ip), vehicle: saline with Tween-80, higher = longer survival) is 98 % of control.
For the molecule `CC1OC(=O)C(C(C)C)NC(=O)C(C(C)C)OC(=O)C(C(C)C)NC(=O)C(C)OC(=O)C(C(C)C)NC(=O)C(C(C)C)OC(=O)C(C(C)C)NC(=O)C(C)OC(=O)C(C(C)C)NC(=O)C(C(C)C)OC(=O)C(C(C)C)NC1=O` (stereo not drawn), the T/C (endpoint: median survival time, dose: 0.31 mg/kg/injection, schedule: Q01DX009 (ip), vehicle: saline with Tween-80, higher = longer survival) is 100 % of control; the T/C (endpoint: median survival time, dose: 0.62 mg/kg/injection, schedule: Q01DX009 (ip), vehicle: saline with Tween-80, higher = longer survival) is 103 % of control; the T/C (endpoint: median survival time, dose: 0.75 mg/kg/injection, schedule: Q01DX009 (ip), vehicle: Klucel (hydroxypropylcellulose) (HPC), higher = longer survival) is 94 % of control; the T/C (endpoint: median survival time, dose: 1.25 mg/kg/injection, schedule: Q01DX009 (ip), vehicle: saline with Tween-80, higher = longer survival) was 109 % of control; the T/C (endpoint: median survival time, dose: 1.5 mg/kg/injection, schedule: Q01DX009 (ip), vehicle: Klucel (hydroxypropylcellulose) (HPC), higher = longer survival) was 86 % of control; the T/C (endpoint: median survival time, dose: 2.5 mg/kg/injection, schedule: Q01DX009 (ip), vehicle: saline with Tween-80, higher = longer survival) was 86 % of control. The T/C is 101 % of control (endpoint: median survival time, dose: 3.0 mg/kg/injection, schedule: Q01DX009 (ip), vehicle: Klucel (hydroxypropylcellulose) (HPC), higher = longer survival); 100 % of control (endpoint: median survival time, dose: 6.0 mg/kg/injection, schedule: Q01DX009 (ip), vehicle: Klucel (hydroxypropylcellulose) (HPC), higher = longer survival); 114 % of control (endpoint: median survival time, dose: 8.0 mg/kg/injection, schedule: Q01DX009 (ip), vehicle: saline with Tween-80, higher = longer survival); 112 % of control (endpoint: median survival time, dose: 12.0 mg/kg/injection, schedule: Q01DX009 (ip), vehicle: saline with Tween-80, higher = longer survival); 106 % of control (endpoint: median survival time, dose: 15.0 mg/kg/injection, schedule: Q04DX003 (ip), vehicle: saline with Tween-80, higher = longer survival); 123 % of control (endpoint: median survival time, dose: 20.0 mg/kg/injection, schedule: Q01DX001 (ip), vehicle: saline with Tween-80, higher = longer survival). Moreover, the T/C is, setting by setting: (endpoint: median survival time, dose: 20.0 mg/kg/injection, schedule: Q04DX003 (ip), vehicle: saline with Tween-80, higher = longer survival) 112 % of control; (endpoint: median survival time, dose: 30.0 mg/kg/injection, schedule: Q01DX001 (ip), vehicle: saline with Tween-80, higher = longer survival) 112 % of control; (endpoint: median survival time, dose: 30.0 mg/kg/injection, schedule: Q04DX003 (ip), vehicle: saline with Tween-80, higher = longer survival) 115 % of control; (endpoint: median survival time, dose: 45.0 mg/kg/injection, schedule: Q01DX001 (ip), vehicle: saline with Tween-80, higher = longer survival) 119 % of control.
With `CC1=C2C(=CC(C)(C)[C@@H]2O)C(=O)[C@](C)(O)C12CC2`, the T/C by setting is: under setting [5], 61 % of control; (endpoint: mean tumor weight, dose: 0.18 mg/kg/injection, schedule: Q01DX011 (ip), vehicle: saline, higher = larger tumour) 92 % of control; (endpoint: mean tumor weight, dose: 0.26 mg/kg/injection, schedule: Q01DX011 (ip), vehicle: saline, higher = larger tumour) 73 % of control; (endpoint: mean tumor weight, dose: 0.4 mg/kg/injection, schedule: Q01DX011 (ip), vehicle: saline, higher = larger tumour) 76 % of control; (endpoint: mean tumor weight, dose: 0.6 mg/kg/injection, schedule: Q01DX011 (ip), vehicle: saline, higher = larger tumour) 19 % of control.
On to `Oc1cc(O)c2c(c1)O[C@H](c1ccc(O)c(O)c1)[C@@H](O)C2`, for which the T/C is 76 % of control (endpoint: mean tumor weight, dose: 50.0 mg/kg/injection, schedule: Q01DX011 (ip), vehicle: saline, higher = larger tumour); 94 % of control (endpoint: mean tumor weight, dose: 100.0 mg/kg/injection, schedule: Q01DX011 (ip), vehicle: saline, higher = larger tumour); 72 % of control (endpoint: mean tumor weight, dose: 200.0 mg/kg/injection, schedule: Q01DX011 (ip), vehicle: saline, higher = larger tumour); 74 % of control (endpoint: mean tumor weight, dose: 400.0 mg/kg/injection, schedule: Q01DX011 (ip), vehicle: saline, higher = larger tumour).
Regarding `O=C(Nc1ccc2c(c1)Cc1cccc(NC(=O)C(Cl)Cl)c1-2)C(Cl)Cl`, under “endpoint: mean tumor weight, dose: 45.0 mg/kg/injection, schedule: Q01DX011 (ip), vehicle: carboxymethylcellulose (CMC), higher = larger tumour”, the T/C is 72 % of control.
Consider `O=C(O)CCC(=O)Nc1nccs1`, for which the T/C (endpoint: mean tumor weight, dose: 50.0 mg/kg/injection, schedule: Q01DX011 (ip), vehicle: carboxymethylcellulose (CMC), higher = larger tumour) is 77 % of control; the T/C (endpoint: mean tumor weight, dose: 100.0 mg/kg/injection, schedule: Q01DX011 (ip), vehicle: carboxymethylcellulose (CMC), higher = larger tumour) was 83 % of control; the T/C (endpoint: mean tumor weight, dose: 200.0 mg/kg/injection, schedule: Q01DX011 (ip), vehicle: carboxymethylcellulose (CMC), higher = larger tumour) was 68 % of control; the T/C (endpoint: mean tumor weight, dose: 400.0 mg/kg/injection, schedule: Q01DX011 (ip), vehicle: carboxymethylcellulose (CMC), higher = larger tumour) was 101 % of control.
